Reference: paper PMC8955938, “c-Myc Protein Level Affected by Unsymmetrical Bisacridines Influences Apoptosis and Senescence Induced in HCT116 Colorectal and H460 Lung Cancer Cells” (International Journal of Molecular Sciences, 2022)

How the values were obtained:
H460 cells [1] = assay: Accelerated senescence (SA-β-gal), H460; type: cell-based, human; settings: H460, IC90 doses, 72 and 120 h
Protocol: The accelerated senescence examination was based on the analysis of pH 6.0-dependent β-galactosidase (SA-β-gal) expression together with senescence-related morphology, such as enlarged and flattened cells. HCT116 and H460 cells were seeded in 60 mm plates containing microscope coverslips and treated with UAs for up to 120 h. After the treatment, coverslips with attached cells were moved to 35 mm dishes, washed twice with PBS and fixed with […] for 5 min. The cells were then washed twice with PBS (pH 6.0) and incubated at pH 6.0 with X-gal (5-bromo-4-chloro-3-indolyl-β-D-[…], substrate for SA-β-gal) staining solution (1 mg/mL X-gal, 40 mmol/L citric acid/sodium phosphate, pH 6.0, 5 mmol/L potassium ferrocyanide, 5 mmol/L potassium ferricyanide, 150 mmol/L NaCl, 2 mmol/L MgCl2). Following overnight incubation at 37 °C, cells were washed twice with PBS and observed under a light microscopy (OLYMPUS BX60; magnification ×200).

HCT116 spheroids = tested on: HCT116 spheroids; design: method as in PMID 34684841; settings: HCT116 3D spheroids; cited from earlier work
H460 cells [2] = assay: Apoptosis in H460, summary of all conducted experiments; type: cell-based, human; settings: H460, IC90 doses, 120 h, summary in discussion
Protocol: Nuclear morphology was examined under a fluorescence microscope (OLYMPUS BX60, […]) after staining with Hoechst 33342. Briefly, after drug treatment, HCT116, H460, CCD 841 CoN and MRC-5 cells were spun onto microscopic slides, fixed with methanol:acetic acid (3:1) for 15 min and stained with Hoechst 33342 (1 mg/mL) for 15 min. Cells were regarded as apoptotic based on the presence of condensed, fragmented chromatin. Enlarged cells containing multiple nuclei were considered as typical of mitotic catastrophe.
Annexin V–FITC binding was performed with an Annexin-V Fluos Staining kit (BD Biosciences, San Jose, CA, USA) according to manufacturer’s protocol. […] Cells were incubated for 15 min at room temperature in the dark, then diluted with 400 µL of binding buffer and analyzed by flow cytometry with FACS Accuri C6 (BD, San Jose, CA, USA). Cells with low FITC and PI fluorescence were considered viable. Cells that presented high FITC fluorescence but low PI fluorescence were regarded as early apoptotic. Late apoptotic cells presented high FITC and PI fluorescence. Necrotic cells had low FITC fluorescence and high PI fluorescence.
Caspase-3 activity was determined using Alexa Fluor 647-conjugated anti-active caspase-3 antibody (BD Biosciences, San Diego, CA, USA) according to the manufacturer’s instructions. […]

[3] = tested on: KRAS gene expression in HCT116 cells; assay: RT-PCR KRAS expression in HCT116; type: cell-based, human; settings: HCT116, IC90 doses, up to 120 h
Protocol: HCT116, H460, CCD 841 CoN and MRC-5 cells after treatment with UAs were collected, washed twice with ice-cold PBS and resuspended in […] of PBS. mRNA was isolated using High Pure RNA Isolation Kit according to the manufacturer’s instructions (Roche, Basel, Switzerland). Briefly, cells were lysed in lysis-binding buffer and transferred to a filter tube. Contaminating DNA was removed by 15 min incubation of the filter tube with DNase I solution. The filter tube was washed once with buffer I and twice with buffer II, and after centrifugation, total RNA was eluted using the elution buffer. RNA concentration was determined by NanoDrop One (Thermo Scientific); 1 µg of RNA was reverse transcribed using Transcriptor First Strand cDNA Synthesis Kit according to the manufacturer’s instructions (Roche) in 20 µL of reaction containing 1 µg of RNA, […] anchored-oligo(dT)18Primer, 8 mM MgCl2, 20 U of Protector RNase Inhibitor, deoxynucleotide mix (1 mM each) and 22 U of Transcriptor Reverse Transcriptase. The reverse transcription reaction was carried out for 30 min at 55 °C and stopped by heating to 85 °C for 5 min and placing on ice. The cDNA solution was stored at −20 °C until use. […] The relative expression level of MYC and KRAS was quantified using comparative method […]. The results were obtained from three independent experiments, each of which was analyzed at least twice.

Row | SMILES | accelerated senescence (SA-β-gal blue staining) (H460 cells [1]) | inhibition of spheroids growth (HCT116 spheroids) | treated cells that underwent apoptosis (H460 cells [2]) | KRAS expression compared to untreated control [3]
1 | CN(CCCNc1c2ccccc2nc2cccc([N+](=O)[O-])c12)CCCNc1ccc2ncn3c4ccccc4c(=O)c1c23 [Compound C-2028] | induced senescence to the highest extent |  |  | 
2 | O=c1c2ccccc2n2cnc3ccc(NCCCN4CCN(CCCNc5c6ccccc6nc6cccc([N+](=O)[O-])c56)CC4)c1c32 [Compound C-2041] |  | to the least extent |  | 
3 | Cc1ccc([N+](=O)[O-])c2c(NCCCN(C)CCCNc3ccc4ncn5c6ccc(O)cc6c(=O)c3c45)c3ccccc3nc12 [Compound C-2045] |  |  | about 60% | 
4 | Cc1ccc([N+](=O)[O-])c2c(NCCCN(C)CCCNc3ccc4ncn5c6ccccc6c(=O)c3c45)c3ccccc3nc12 [Compound C-2053] | least profound changes | to the greatest extent | about 60% | significant difference
